Experimental findings from patent US9796700B2 (Celgene CAR LLC, priority 2013, dated 2017) are described below.

Read-outs that look alike come from different tables or passages of the source. Bounds are passed on as bounds.

One assay has as its target Erk1 (Homo sapiens (Human), UniProt P27361). As to the kind of experiment: Protein Mass Modification Assay (intact protein MALDI). The format is binding. In outline: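 Percent covalent modification comes from the intact-protein MALDI centroid mass shift, treated versus control, divided by compound MW. Before analysis, human Erk1 was exposed to compound at 10-fold excess over protein for 60 min at room temperature.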

Assay [1] has as its system ERK1 phosphorylation of its substrate RSK in HT29 cells. Description: pRSK MSD Assay in HT29 cells. The format is cell-based. As to conditions: read-out: ERK1 PRSK MSD HT29 EC50. The protocol: The protocol below describes an assay to measure the kinase activity of ERK1 to phosphorylate its substrate, RSK, in the presence of a test compound. This experiment was conducted using a Mesoscale Discovery plate. The day before the assay, HT29 cells were split and plated at 50,000 cells/well in complete growth media. After allowing cells to adhere, the media was removed and replaced with media containing 0.1% FBS and incubated overnight. Blank MDS plates were coated with 25 μl/well RSK capture antibody and incubated at 4° C. overnight. The next day, the media was removed and replaced with 100 μl of media containing a test compound and incubated for 120 minutes at 37° C. The media was removed and replaced with 55 μl of well lysis buffer with protease and phosphatase inhibitors provided in the kit, followed by incubation at 4° C. for 30 minutes. 50 μl of lysate was transferred to a blocked MSD plate, followed by incubation at room temperature for 2 hours under constant shaking. The plate was washed 3 times with MSD wash buffer (cat#R617TX), and 25 μl/well phospho-RSK (pRSK) detection antibody was added with an appropriate Sulfo-tagged anti-species detection antibody diluted in 1% BSA in MSD wash buffer. This mixture was incubated for 1 hour at room temperature under constant shaking. The plate was washed 3 times, and 150 μl 1×MSD read buffer was added, followed by signal detection in an MSD plate reader.

The target in a further assay is MEK1 activated ERK1 (Homo sapiens (Human), UniProt P27361). As to the kind of experiment: Omnia continuous-read kinase assay for potency against MEK1 activated ERK1. The format is biochemical. As to conditions: MEK1 activated ERK1, WT, ATP at KM. In short, it runs like this: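 Apparent IC50 came from initial reaction slopes (RFU vs time) plotted against log inhibitor with a variable-slope fit. Reactions were started with ERK1 (4 nM final) added to 50 μM ATP, roughly at its appKM, and 10 μM Sox-conjugated ST17 peptide in 20 mM Tris pH 7.5, 5 mM MgCl2. Fluorescence was monitored every 71 seconds.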

Setting [2] is: Homo sapiens, HT-29, HT29 cells.

Sequence of Erk1 (P27361 whole entry, looked up): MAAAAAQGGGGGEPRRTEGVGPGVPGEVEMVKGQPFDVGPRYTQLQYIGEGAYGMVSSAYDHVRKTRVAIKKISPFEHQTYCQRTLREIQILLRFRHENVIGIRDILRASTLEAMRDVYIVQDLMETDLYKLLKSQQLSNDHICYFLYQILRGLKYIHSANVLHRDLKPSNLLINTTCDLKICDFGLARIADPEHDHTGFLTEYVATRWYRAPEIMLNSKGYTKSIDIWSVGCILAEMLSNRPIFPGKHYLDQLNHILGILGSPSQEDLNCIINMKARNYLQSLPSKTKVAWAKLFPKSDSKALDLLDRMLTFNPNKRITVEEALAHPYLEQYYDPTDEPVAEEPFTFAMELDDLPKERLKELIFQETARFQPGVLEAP
Sequence of MEK1 activated ERK1 (P27361 whole entry): as the sequence (P27361 whole entry, looked up) above

Take `C=CC(=O)Nc1ccccc1Nc1nc(NC2CCC(=O)CC2)ncc1C(F)(F)F` [Compound I-23, N-(2-((2-((4-Oxocyclohexyl)amino)-5-(trifluoromethyl)pyrimidin-4-yl)amino)phenyl)acrylamide]: at Erk1, the “ERK1 Mass Mod (%)” value was “E (provided a mass modification of ≧70%)”. Also, the EC50 in assay [1] (setting [2]) fell in the range of 101 to 500 nM. The IC50 on MEK1 activated ERK1 was less than 100 nM.
On to `C=C(C)S(=O)(=O)Nc1ccccc1Nc1nc(NC2CCC(=O)CC2)ncc1C(F)(F)F` [Compound I-40, N-(2-((2-((4-Oxocyclohexyl)amino)-5-(trifluoromethyl)pyrimidin-4-yl)amino)phenyl)prop-1-ene-2-sulfonamide], for which the “ERK1 Mass Mod (%)” value on Erk1 is “F (provided a mass modification of 31-69%)”. The EC50 in assay [1] (setting [2]) was greater than 1000 nM. The IC50 on MEK1 activated ERK1 was less than 100 nM.
Taken in the same sequence, the figures for `C=CC(=O)Nc1cc(C)ccc1Nc1nc(N[C@H]2CCCN(C(=O)CC)C2)ncc1C(F)(F)F` [Compound I-41, (S)—N-(5-Methyl-2-((2-((1-propionylpiperidin-3-yl)amino)-5-(trifluoromethyl)pyrimidin-4-yl)amino)phenyl)acrylamide] were “E (provided a mass modification of ≧70%)”, 101 to 500 nM and less than 100 nM.
For the compound `C/C=C/S(=O)(=O)Nc1cc(F)ccc1Nc1nc(N[C@H]2CCCN(C(=O)CO)C2)ncc1C(F)(F)F` [Compound I-48, (S,E)-N-(5-Fluoro-2-((2-((1-(2-hydroxyacetyl)piperidin-3-yl)amino)-5-(trifluoromethyl)pyrimidin-4-yl)amino)phenyl)prop-1-ene-1-sulfonamide], on Erk1, the “ERK1 Mass Mod (%)” value is “G (proived a mass modification ≦30%)”. For the same compound, the EC50 in assay [1] (setting [2]) was greater than 1000 nM. At MEK1 activated ERK1, the IC50 is less than 100 nM.
Regarding `C=CC(=O)Nc1ccccc1Nc1nc(NC2CCOCC2)ncc1Cl` [Compound I-108, N-(2-((5-chloro-2-((tetrahydro-2H-pyran-4-yl)amino)pyrimidin-4-yl)amino)phenyl) acrylamide], on Erk1, the “ERK1 Mass Mod (%)” value is given as “E (provided a mass modification of ≧70%)”. Further, the EC50 in assay [1] (setting [2]) is less than 100 nM. Further, the IC50 at MEK1 activated ERK1 was less than 100 nM.
For `C=CC(=O)Nc1ccccc1Nc1nc(N[C@H]2CC[C@@H](O)CC2)ncc1C(F)(F)F` [Compound I-109, N-(2-((2-(cis-(4-hydroxycyclohexyl)amino)-5-(trifluoromethyl)pyrimidin-4-yl)amino)phenyl) acrylamide], the “ERK1 Mass Mod (%)” value on Erk1 is recorded as “E (provided a mass modification of ≧70%)”. Also, in assay [1] (HT29 cells), the EC50 was greater than 1000 nM.
On to `C=CC(=O)Nc1ccccc1Nc1nc(N[C@H]2CC[C@@H](F)CC2)ncc1C(F)(F)F` [Compound I-110, N-(2-((2-(cis-(4-fluorocyclohexyl)amino)-5-(trifluoromethyl)pyrimidin-4-yl)amino)phenyl)acrylamide], for which the “ERK1 Mass Mod (%)” value at Erk1 is “E (provided a mass modification of ≧70%)”. The EC50 in assay [1] (setting [2]) is 101 to 500 nM. The IC50 at MEK1 activated ERK1 lay within 101 to 500 nM.
Consider `C=CC(=O)Nc1ccccc1Nc1nc(N[C@H]2CC[C@H](F)CC2)ncc1C(F)(F)F` [Compound I-111, N-(2-((2-(trans-(4-fluorocyclohexyl)amino)-5-(trifluoromethyl)pyrimidin-4-yl)amino)phenyl)acrylamide], for which the “ERK1 Mass Mod (%)” value on Erk1 was “E (provided a mass modification of ≧70%)”. Besides, the EC50 in assay [1] (HT29 cells) lay within 101 to 500 nM. For the same compound, the IC50 on MEK1 activated ERK1 was 101 to 500 nM.
Take `C=CC(=O)Nc1cc(Cl)ccc1Nc1nc(Nc2cc(OC)ncc2C)ncc1Cl` [Compound I-248, N-(5-chloro-2-((5-chloro-2-((2-methoxy-5-methylpyridin-4-yl)amino)pyrimidin-4-yl)amino)phenyl)acrylamide]: at Erk1, the “ERK1 Mass Mod (%)” value is recorded as “E (provided a mass modification of ≧70%)”. The EC50 in assay [1] (setting [2]) was in the range of 101 to 500 nM. Further, at MEK1 activated ERK1, the IC50 is less than 100 nM.
Taken in the same sequence, the figures for `CC(C)=CC(=O)c1ccccc1Oc1nc(Nc2ccc(F)cc2C)ncc1C(N)=O` [Compound I-272, 2-((4-fluoro-2-methylphenyl)amino)-4-(2-(3-methylbut-2-enoyl)phenoxy)pyrimidine-5-carboxamide] were “G (proived a mass modification ≦30%)”, greater than 1000 nM and greater than 1000 nM.
Consider `C=CC(=O)Nc1cc(C)ccc1Nc1nc(N[C@H]2CCN(S(=O)(=O)C=C)C2)ncc1C(F)(F)F` [Compound I-279, (S)—N-(5-Methyl-2-((5-(trifluoromethyl)-2-((1-(vinylsulfonyl)pyrrolidin-3-yl)amino)pyrimidin-4-yl)amino)phenyl)acrylamide], for which the “ERK1 Mass Mod (%)” value at Erk1 was “E (provided a mass modification of ≧70%)”. The 50% effective concentration (EC50) in assay [1] (setting [2]) was greater than 1000 nM.
For the compound `CCC(=O)Nc1ccccc1Nc1nc(Nc2ccc(N(CC)C(C)=O)cc2C#N)ncc1Cl` [Compound I-316, N-(2-((5-chloro-2-((2-cyano-4-(N-ethylacetamido)phenyl)amino)pyrimidin-4-yl)amino)phenyl)propionamide], in assay [1] (setting [2]), the EC50 is greater than 1000 nM. For the same compound, the IC50 at MEK1 activated ERK1 was greater than 1000 nM.
Take `C=CC(=O)Nc1ccccc1Nc1nc(Nc2cc(OC)nc(N3CCN(C)CC3)c2)ncc1C(F)(F)F` [Compound I-324, N-(2-((2-((2-methoxy-6-(4-methylpiperazin-1-yl)pyridin-4-yl)amino)-5-(trifluoromethyl)pyrimidin-4-yl)amino)phenyl)acrylamide]: on Erk1, the “ERK1 Mass Mod (%)” value is “E (provided a mass modification of ≧70%)”. In addition, the EC50 in assay [1] (setting [2]) was in the range of 101 to 500 nM. The IC50 on MEK1 activated ERK1 was less than 100 nM.
As to `C=CC(=O)Nc1ccccc1Nc1nc(Nc2c[nH]nc2C)ncc1C(F)(F)F` [Compound I-330, N-(2-((2-((3-methyl-1H-pyrazol-4-yl)amino)-5-(trifluoromethyl)pyrimidin-4-yl)amino)phenyl)acrylamide], the “ERK1 Mass Mod (%)” value on Erk1 is on record as “E (provided a mass modification of ≧70%)”. Moreover, in assay [1] (setting [2]), the EC50 is greater than 1000 nM. Further, the 50% inhibitory concentration (IC50) on MEK1 activated ERK1 is greater than 1000 nM.
Turning to `C=CC(=O)Nc1cc(C)ccc1Nc1nc(Nc2cnnc(Cl)c2)ncc1C(F)(F)F` [Compound I-331, N-(2-((2-((6-chloropyridazin-4-yl)amino)-5-(trifluoromethyl)pyrimidin-4-yl)amino)-5-methylphenyl)acrylamide], the “ERK1 Mass Mod (%)” value on Erk1 is recorded as “E (provided a mass modification of ≧70%)”. Further, the concentration giving a half-maximal response (EC50) in assay [1] (setting [2]) is 101 to 500 nM. For the same compound, the IC50 on MEK1 activated ERK1 was greater than 1000 nM.
Taken in the same sequence, the figures for `C=CC(=O)Nc1cc(C)ccc1Nc1nc(Nc2cc(OC)cc(OC)c2)ncc1C(F)(F)F` [Compound I-339, N-(2-((2-((3,5-dimethoxyphenyl)amino)-5-(trifluoromethyl)pyrimidin-4-yl)amino)-5-methylphenyl)acrylamide] were “E (provided a mass modification of ≧70%)”, 101 to 500 nM and greater than 1000 nM.
For `C=CC(=O)Nc1cc(C)ccc1Nc1nc(Nc2nc(OC)ncc2Cl)ncc1C(F)(F)F` [Compound I-344, N-(2-((2-((5-chloro-2-methoxypyrimidin-4-yl)amino)-5-(trifluoromethyl)pyrimidin-4-yl)amino)-5-methylphenyl)acrylamide] the same measures were “E (provided a mass modification of ≧70%)”, less than 100 nM and less than 100 nM.
For `C=CC(=O)Nc1cc(C)ccc1Nc1nc(Nc2nc(OC)ncc2C)ncc1C(F)(F)F` [Compound I-347, N-(2-((2-((2-methoxy-5-methylpyrimidin-4-yl)amino)-5-(trifluoromethyl)pyrimidin-4-yl)amino)-5-methylphenyl)acrylamide] the same measures were “E (provided a mass modification of ≧70%)”, 101 to 500 nM and 101 to 500 nM.
For the compound `C=CC(=O)Nc1cc(C)ccc1Nc1nc(Nc2cc(OC)ncn2)ncc1C(F)(F)F` [Compound I-348, N-(2-((2-((6-methoxypyrimidin-4-yl)amino)-5-(trifluoromethyl)pyrimidin-4-yl)amino)-5-methylphenyl)acrylamide], the “ERK1 Mass Mod (%)” value at Erk1 is recorded as “G (proived a mass modification ≦30%)”. For the same compound, the EC50 in assay [1] (setting [2]) is 501 to 999 nM. In addition, at MEK1 activated ERK1, the IC50 is greater than 1000 nM.
Taken in the same sequence, the figures for `CCC(=O)Nc1cc(C)ccc1Nc1nc(Nc2cc(OC)ncc2C)ncc1C(F)(F)F` [Compound I-352, N-(2-((2-((2-methoxy-5-methylpyridin-4-yl)amino)-5-(trifluoromethyl)pyrimidin-4-yl)amino)-5-methylphenyl)propionamide] were “G (proived a mass modification ≦30%)”, greater than 1000 nM and greater than 1000 nM.

In general, EC50 refers to the concentration that produces a half-maximal response. What is called IC50 is the concentration needed to halve the response being measured.
